One block for each compound: values may come before it.
How the values were obtained:
[1] = system: BT-549; settings: 72 h
Outline: (§1)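 A 20 µl suspension of breast cancer cells was placed in 384-well plates that already contained compound at 5 concentrations in 10-fold steps across a compound-specific 10,000-fold range, and the plates were left for 72 h. CellTox Green fluorescence at 485/520 nm gave cell death, and CellTiter-Glo luminescence, read after 10 min at room temperature, gave viability. Each plate was normalised to 0.1 % DMSO and a positive kill control. EC50 was fitted from the curves and censored at the top concentration.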

[2] = system: DU-4475; assay: normalised viability (% of control), CellTiter-Blue; higher = more viable cells (about 100 = DMSO control); settings: incubation time: 72 h
Method: (§2)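 DSRT, CellTiter-Blue viability, 72 h incubation. Signal is normalised to DMSO and benzethonium chloride controls. Value is the normalised response at dose 8.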

[3] = system: CAL-51; assay: as above; settings: incubation time: 72 h
Method: as §2

[4] = system: CAL-148; assay: as above; settings: incubation time: 72 h
Method: as §2

[5] = system: HDQ-P1; assay: as above; settings: incubation time: 72 h
Method: as §2

[6] = system: CAL-85-1; assay: as above; settings: incubation time: 72 h
Method: as §2

[7] = system: MDA-MB-453; assay: as above; settings: incubation time: 72 h
Method: as §2

[8] = system: DU-4475; assay: as above; settings: incubation time: 72 h; remark: listed apart in the source
Method: (§3)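 DSRT, CellTiter-Blue viability, 72 h incubation. Signal is normalised to DMSO and benzethonium chloride controls. Value is the normalised response at dose 7.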

[9] = system: CAL-51; assay: as above; settings: incubation time: 72 h; remark: listed apart in the source
Method: as §3

[10] = system: CAL-148; assay: as above; settings: incubation time: 72 h; remark: listed apart in the source
Method: as §3

[11] = system: HDQ-P1; assay: as above; settings: incubation time: 72 h; remark: listed apart in the source
Method: as §3

[12] = system: CAL-85-1; assay: as above; settings: incubation time: 72 h; remark: listed apart in the source
Method: as §3

[13] = system: MDA-MB-453; assay: as above; settings: incubation time: 72 h; remark: listed apart in the source
Method: as §3

[14] = system: CAL-51; settings: 72 h
Outline: as §1

[15] = system: DU-4475; assay: normalised viability (% of control), CellTiter-Blue; higher = more viable cells (100 = DMSO, 0 = benzethonium chloride kill control); settings: incubation time: 72 h
Method: (§4)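 DSRT, CellTiter-Blue viability, 72 h incubation. Signal is normalised to DMSO and benzethonium chloride controls. Value is the normalised response at dose 1.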

[16] = system: HCC1937; assay: as above; settings: incubation time: 72 h
Method: as §4

[17] = system: CAL-51; assay: as above; settings: incubation time: 72 h
Method: as §4

[18] = system: MFM-223; assay: as above; settings: incubation time: 72 h
Method: as §4

[19] = system: BT-549; assay: as above; settings: incubation time: 72 h
Method: as §4

[20] = system: HDQ-P1; assay: as above; settings: incubation time: 72 h
Method: as §4

[21] = system: Hs578T; assay: as above; settings: incubation time: 72 h
Method: as §4

[22] = system: MDA-MB-468; assay: as above; settings: incubation time: 72 h
Method: as §4

[23] = system: CAL-120; assay: as above; settings: incubation time: 72 h
Method: as §4

[24] = system: SK-BR-3; assay: as above; settings: incubation time: 72 h
Method: as §4

[25] = system: HCC1599; assay: as above; settings: incubation time: 72 h
Method: as §4

EC50, CellTiter-Glo [1]: > 10000 nM
SMILES: Nc1ncnc2c1c(COc1cccc(Cl)c1)nn2C1CCOCC1

SMILES: C[C@]12CC[C@H](O)CC1=CC[C@@H]1[C@@H]2CC[C@]2(C)C(c3cccnc3)=CC[C@@H]12 [Abiraterone]
normalised viability ([2]; 1500 nM): 88.1%
normalised viability ([3]; 1500 nM): 106%
normalised viability ([4]; 1500 nM): 98.1%
normalised viability ([5]; 1500 nM): 125%
normalised viability ([6]; 1500 nM): 97.5%
normalised viability ([7]; 1500 nM): 96%
normalised viability ([8]; 500 nM): 94.2%
normalised viability ([9]; 500 nM): 103%
normalised viability ([10]; 500 nM): 94.7%
normalised viability ([11]; 500 nM): 112%
normalised viability ([12]; 500 nM): 77.2%
normalised viability ([13]; 500 nM): 92.3%
EC50, CellTiter-Glo [14]: 43.4 nM
normalised viability ([15]; 0.5 nM): 99.4%
normalised viability ([16]; 0.5 nM): 99.8%
normalised viability ([17]; 0.5 nM): 97.6%
normalised viability ([18]; 0.5 nM): 90.2%
normalised viability ([19]; 0.5 nM): 111%
normalised viability ([20]; 0.5 nM): 109%
normalised viability ([21]; 0.5 nM): 95.3%
normalised viability ([22]; 0.5 nM): 102%
normalised viability ([23]; 0.5 nM): 78.9%
normalised viability ([24]; 0.5 nM): 96.1%
normalised viability ([25]; 0.5 nM): 102%

SMILES: CC(C)(C#N)c1cc(Cn2cncn2)cc(C(C)(C)C#N)c1 [Anastrozole]
normalised viability ([2]; 3000 nM): 96.5%
normalised viability ([3]; 3000 nM): 108%
normalised viability ([4]; 3000 nM): 87.2%
normalised viability ([5]; 3000 nM): 85.3%
normalised viability ([6]; 3000 nM): 82.8%
normalised viability ([7]; 3000 nM): 103%
normalised viability ([8]; 1000 nM): 91.3%
normalised viability ([9]; 1000 nM): 93.9%
normalised viability ([10]; 1000 nM): 90.4%
normalised viability ([11]; 1000 nM): 84.2%
normalised viability ([12]; 1000 nM): 90.8%
normalised viability ([13]; 1000 nM): 105%
normalised viability ([15]; 1 nM): 94%
normalised viability ([16]; 1 nM): 94.6%
normalised viability ([17]; 1 nM): 108%
normalised viability ([18]; 1 nM): 98.8%
normalised viability ([19]; 1 nM): 122%
normalised viability ([20]; 1 nM): 101%
normalised viability ([21]; 1 nM): 97.2%
normalised viability ([22]; 1 nM): 97.9%
normalised viability ([23]; 1 nM): 88.8%
normalised viability ([24]; 1 nM): 97.7%
normalised viability ([25]; 1 nM): 107%

— the supplement of paper PMC4862054
